These results are taken from patent US20260240968A1, “METHODS AND MODIFICATIONS FOR REDUCING INNATE IMMUNE RESPONSES TO RNA” (The Board of Trustees of the Leland Stanford Junior …, priority 2023, published 2026).

Assay [1] concerns HEK293 cells. Kind of assay: Luminex human 48-plex analysis of cytokines and immune activation markers released from HEK293 cells lipofected with eGFP-mRNA with or without cloaking. The format is cell-based. On the procedure: As an initial assessment of how cloaking affects the innate immune responses of mRNA, we measured the release of cytokines and immune activation markers from HEK293 cells that were lipofected by eGFP-mRNA with or without cloaking. HEK293 cells were transfected with 2 μg of mRNA with lipofectamine MessengerMax. […] In comparison. […] The translation of eGFP-mRNA was insignificant at this time (6 hours post-transfection), so the release of these immunomodulatory cytokines/chemokines is largely due to cells sensing the mRNA.
We further evaluated the effect of 2′-acylation on long-term immune response with Luminex human 48-plex assays in HEK293 cells that were transfected with modified eGFP-mRNA (FIG. 3 and FIG. 4).
We next investigated whether the chemical structure of acylating reagents may differentially modulate certain innate immune response pathways. […] Because the maximum level of cloaking varied among these reagents, we proceeded to equimolarly cloak at ~50% of unpaired accessible 2′-hydroxyls of eGFP-mRNA with a similar level of modification. We measured the release of cytokines and immune activation markers from HEK293 cells that were lipofected by modified eGFP-mRNA with or without cloaking. HEK293 cells were transfected with 2 μg of mRNA aliquots with lipofectamine MessengerMax. […] Thus, acylating reagents with diverse chemical structures can differentially modulate certain innate immune-responsive pathways.

For a further assay, the system named is ISG15. The assay is described as follows: RT-qPCR of ISG15 mRNA expression (Type I innate immune response via the RIG-1 pathway) in HEK293 cells lipofected with eGFP-mRNA. The class given is cell-based, human. Particulars: HEK293 lipofected by eGFP-mRNA with or without cloaking by DMG-Im. The text has this: Transfection of in vitro transcribed RNA can trigger a potent Type I innate immune response in HEK293 cells (PMID: 30011268). Next, we investigated whether cloaking may modulate such response in HEK293 cells. To do this, HEK293 cells were lipofected by eGFP-mRNA with or without cloaking by DMG-Im. We measured the mRNA expression level of ISG15, an activation marker downstream of Type I innate immune response via the RIG-1 pathway.
Transfection of in vitro transcribed RNA can trigger a potent Type I innate immune response in HEK293 cells (PMID: 30011268). Next, we investigated whether cloaking may modulate such response in HEK293 cells. To do this, HEK293 cells were lipofected by eGFP-mRNA with or without cloaking by DMG-lm. We measured the mRNA expression level of ISG15, an activation marker downstream of Type I innate immune response via the RIG-1 pathway.
(In general: In qPCR the cycle at which signal appears reflects the starting amount.)

The next assay concerns SW480 cells. Particulars: cancerous cells (SW480); cloaked mRNA.
The subject of assay [2] is HEK293 cells. Kind of assay: Spontaneous restoration of translation of cloaked GFP-mRNA (green fluorescence) in HEK293 cells. The following applies: normal cells (HEK293).
Text: (§1) Thus, we investigated whether adducts by N,N-dimethylglycine acylimidazole can spontaneously release within the cells. To explored this, we employed cloaked mRNAs encoding a green fluorescence protein (GFP) (FIG. 6).
We screened these acylimidazole reagents for spontaneous restoration of mRNA translation in HEK293 cells by transfection with d2GFP-mRNA aliquots that were acylated with these acylimidazole reagents at various levels of 2′-modification. We monitored the green fluorescence signal in HEK293 cells over three days.
[3] abbreviates: long-term immune response, HEK293 transfected with modified eGFP-mRNA.

Text for HeLa cells: as §1
Text for SW480 cells: as §1

For the compound `CN(C)CC(=O)n1ccnc1` [DMG-Im, N,N-dimethylglycine acylimidazole], the “expression of some proinflammatory cytokines and immune activation markers over time” value with HEK293 cells [1] (FIGS. 3A-3B, cloaking by DMG-Im) was “potently modulates”. Further, in the assay on HEK293 cells [1] (HEK293 transfected with 2 μg of eGFP-mRNA, lipofectamine MessengerMax, six hours post-transfection), the “release of proinflammatory chemokines and cytokines, including VEGF, RANTES/CCL5, PDGFAA, and IL8” value was “potently suppressed”. Moreover, in the assay with HEK293 cells [1] (RNA cloaked with the R group, FIGS. 9 and 10), the “expression profiles of immune response mediators including type I interferon, CCL5, IL-8, IL-3, VEGF” value is “distinct expression profiles”. Further, the “expression of many mRNA-stimulated cytokines” value with HEK293 cells [1] (cloaked vs unmodified eGFP-mRNA, six hours post-transfection) is listed as “not significantly modulated”. Moreover, the “reduction of the release of proinflammatory cytokines and activation (VEGF, RANTES/CCL5, PDGFAA, IL8)” value in the assay on HEK293 cells [1] (eGFP-mRNA with intermediate cloaking (~50% of unpaired 2′-hydroxyls) vs unmodified, 2 μg, six hours post-transfection) was not above 90%. Besides, in the assay on HEK293 cells [1] (setting [3]), the “release of Granulocyte-macrophage colony-stimulating factor (GMCSF) over time” value was “increasingly suppressed overtime”. Moreover, the “release of proinflammatory Chemokine ligand 5 (CCL5) over time” value in the assay with HEK293 cells [1] (setting [3]) was “increasingly suppressed overtime”. The “secretion of Vascular endothelial growth factor (VEGF) over time” value with HEK293 cells [1] (setting [3]) was “increasingly less suppressed over time”. In the assay on ISG15, the “mRNA expression level of ISG15” value is on record as “almost fully suppressed”. In addition, in the assay on HeLa cells (HeLa cells, d2GFP-mRNA cloaked with DMG-Im), the “extension of the translational lifespan of mRNA encoding destabilized green fluorescent protein d2GFP” value is on record as 31%. For the same compound, the “translation of GFP-mRNA with N,N-dimethylglycine adducts” value is given as “spontaneously restored” in the assay with HeLa cells (cancerous cells (HeLa), cloaked mRNA); “spontaneously restored” with SW480 cells; “spontaneously restored” in the assay with HEK293 cells [2].
